From US9113629B2, “4-amino-6-(4-substituted-phenyl)-picolinates and 6-amino-2-(4-substituted-phenyl)-pyrimidine-4-carboxylates and their use as herbicides” (DOW AGROSCIENCES LLC, priority 2013, dated 2015)
Like-named read-outs stand apart in the source and are kept apart here.

What was measured:
[1] = system: Key Grass and Sedge Weeds as well as Grass Crops; assay: Post-emergent Test II herbicidal activity (Table 6); type: in vivo; settings: post-emergence, 336 h; for pest or weed control at 70 g/ha: application rate 70 g ai/ha; for pest or weed control at 140 g/ha: application rate 140 g ai/ha
Outline: (§1)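 Test species were raised 7–21 d under greenhouse conditions until reaching the first or second true leaf, sprayed with formulated compound at 187 L/ha, and kept subirrigated to avoid wash-off. Fourteen days later, damage was rated visually on a 0–100% scale against untreated plants.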

[2] = system: Key Broadleaf Weed and Crop Species; assay: Post-emergent Test II herbicidal activity (Table 5); type: in vivo; settings: post-emergence, 336 h, post-emergent, 14 days after application; for pest or weed control at 70 g/ha: 70 g ai/ha; for pest or weed control at 140 g/ha: 140 g ai/ha
Outline: as §1

[3] = Triticum aestivum, TRZSS (wheat), read-out: Visual Growth Reduction (%) 14 Days After Application, TRZSS
[4] = CYPES: yellow nutsedge (Cyperus esculentus), read-out: Visual Growth Reduction (%) 14 Days After Application, CYPES
[5] = DIGSA: crabgrass (Digitaria sanguinalis), read-out: Visual Growth Reduction (%) 14 Days After Application, DIGSA
[6] = ECHCG: barnyardgrass (Echinochloa crus-galli), read-out: Visual Growth Reduction (%) 14 Days After Application, ECHCG
[7] = ORYSA: rice (Oryza sativa), read-out: Visual Growth Reduction (%) 14 Days After Application, ORYSA
[8] = SETFA: giant foxtail (Setaria faberi), read-out: Visual Growth Reduction (%) 14 Days After Application, SETFA
[9] = SORVU: grain sorghum (Sorghum vulgare), read-out: Visual Growth Reduction (%) 14 Days After Application, SORVU
[10] = ZEAMX: maize, corn (Zea mays), read-out: Visual Growth Reduction (%) 14 Days After Application, ZEAMX
[11] = ABUTH: velvetleaf (Abutilon theophrasti), read-out: Visual Growth Reduction (%) 14 Days After Application ABUTH
[12] = AMARE: redroot pigweed (Amaranthus retroflexus), read-out: Visual Growth Reduction (%) 14 Days After Application AMARE
[13] = BRSNN: oilseed-rape, canola (Brassica napus), read-out: Visual Growth Reduction (%) 14 Days After Application BRSNN
[14] = CHEAL: lambsquarters (Chenopodium album), read-out: Visual Growth Reduction (%) 14 Days After Application CHEAL
[15] = EPHHL: wild poinsettia (Euphorbia heterophylla), read-out: Visual Growth Reduction (%) 14 Days After Application EPHHL
[16] = HELAN: sunflower (Helianthus annuus), read-out: Visual Growth Reduction (%) 14 Days After Application HELAN
[17] = VIOTR: wild pansy (Viola tricolor), read-out: Visual Growth Reduction (%) 14 Days After Application VIOTR

Q: `C=Cc1c(N)nc(-c2ccc(C(F)(F)F)c(F)c2)nc1C(=O)OC` [Compound 137, Methyl 6-amino-2-(3-fluoro-4-(trifluoromethyl)phenyl)-5-vinylpyrimidine-4-carboxylate] was tested. Which pest or weed control at 70 g/ha [1, 3] did it give?
A: 0 to 29%

Q: And the pest or weed control at 140 g/ha [1, 3]?
A: 0 to 29%

Q: And the pest or weed control at 70 g/ha [1, 4]?
A: 45 to 59%

Q: What about the pest or weed control at 140 g/ha [1, 4] of the same compound?
A: 45 to 59%

Q: And the pest or weed control at 70 g/ha [1, 5]?
A: 0 to 29%

Q: And the pest or weed control at 140 g/ha [1, 5]?
A: 0 to 29%

Q: What about the pest or weed control at 70 g/ha [1, 6] of the same compound?
A: 0 to 29%

Q: What about the pest or weed control at 140 g/ha [1, 6] of the same compound?
A: 0 to 29%

Q: And the pest or weed control at 70 g/ha [1, 7]?
A: 0 to 29%

Q: And the pest or weed control at 140 g/ha [1, 7]?
A: 0 to 29%

Q: What about the pest or weed control at 70 g/ha [1, 8] of the same compound?
A: 0 to 29%

Q: And the pest or weed control at 140 g/ha [1, 8]?
A: 0 to 29%

Q: What about the pest or weed control at 70 g/ha [1, 9] of the same compound?
A: 0 to 29%

Q: What about the pest or weed control at 140 g/ha [1, 9] of the same compound?
A: 0 to 29%

Q: And the pest or weed control at 70 g/ha [1, 10]?
A: 0 to 29%

Q: And the pest or weed control at 140 g/ha [1, 10]?
A: 0 to 29%

Q: And the pest or weed control at 70 g/ha [2, 11]?
A: 75 to 84%

Q: And the pest or weed control at 140 g/ha [2, 11]?
A: 85 to 94%

Q: And the pest or weed control at 70 g/ha [2, 12]?
A: 0 to 29%

Q: What about the pest or weed control at 140 g/ha [2, 12] of the same compound?
A: 0 to 29%

Q: And the pest or weed control at 70 g/ha [2, 13]?
A: 0 to 29%

Q: And the pest or weed control at 140 g/ha [2, 13]?
A: 0 to 29%

Q: And the pest or weed control at 70 g/ha [2, 14]?
A: 0 to 29%

Q: What about the pest or weed control at 140 g/ha [2, 14] of the same compound?
A: 45 to 59%

Q: What about the pest or weed control at 70 g/ha [2, 15] of the same compound?
A: 0 to 29%

Q: What about the pest or weed control at 140 g/ha [2, 15] of the same compound?
A: 60 to 74%

Q: What about the pest or weed control at 70 g/ha [2, 16] of the same compound?
A: 45 to 59%

Q: And the pest or weed control at 140 g/ha [2, 16]?
A: 60 to 74%

Q: What about the pest or weed control at 70 g/ha [2, 17] of the same compound?
A: 0 to 29%

Q: And the pest or weed control at 140 g/ha [2, 17]?
A: 0 to 29%
